Assay results as given in patent US11266709B2, “Methods for the regulation of matrix metalloproteinase expression” (Stealth BioTherapeutics Corp, priority 2013, dated 2022).
Square brackets hold non-standard residues; d marks the D form. Peptide text beside a SMILES is read from it. Dmt = Cc1cc(O)cc(C)c1C[C@H](N)C(=O)O

Key:
[1] = test system: several mammalian cell types; conditions: energy-independent manner; cited from earlier work
[2] = Survival during 6 weeks treatment after coronary occlusion; assay type: in vivo, rat; conditions: 74 rats randomized to peptide or water, following 6 weeks treatment
Procedure: Rats were anesthetized, ventilated, and a thoracotomy performed in the left 4th intercostal space. Temperature was maintained at 36° C. by placing the rats on a heating pad during the procedure. The pericardium was excised and the proximal left coronary artery isolated and permanently occluded with a suture. Coronary artery occlusion was confirmed by cyanosis and akinesis of the anterior wall of the ventricle. The chest was closed, air evacuated, and the rats allowed to recover. Analgesia was administered per the veterinarian. An echocardiogram was obtained at approximately 15 minutes post coronary artery occlusion. At 2 hours rats were randomized to receive chronic daily D-Arg-2′6′-Dmt-Lys-Phe-NH2 (delivered subcutaneously by an Alzet Osmotic Pump—3 mg/kg/day) or water. […] Heart rate and blood pressure were measured. A Millar catheter was inserted into the left ventricle and LV systolic pressure, LV end diastolic pressure, +dP/dt, and −dP/dt were measured. […] Postmortem LV volume was measured by filling the LV cavity with fluid and measuring the total fluid. […] Quantitative histologic analysis included: total circumference, scar circumference, non-infarcted wall circumference, total LV area, total LV cavity area, LV wall thickness (at several points), non-infarcted wall thickness; myocardial infarct expansion index. […]

| Compound | penetration of the plasma membrane [1] | deaths during treatment [2] |
| --- | --- | --- |
| 2′,6′-Dmt-D-Arg-Phe-Lys-NH2 | readily penetrates |  |
| Cc1cc(O)cc(C)c1C[C@H](NC(=O)[C@H](N)CCCNC(=N)N)C(=O)N[C@@H](CCCCN)C(=O)N[C@@H](Cc1ccccc1)C(N)=O [D-Arg-2′6′-Dmt-Lys-Phe-NH2] (H-[dR][Dmt]KF-NH2) |  | no rats died |
